Active and inactive are the calls of the source. The rule behind the calls is not given here.
Tests used:
CCRF-CEM = assay: Antiproliferative activity against human CEM cells assessed as reduction in cell viability incubated for 72 hrs by resazurin dye based assay; format: functional
MV4-11 = assay: Antiproliferative activity against human MV4-11 cells assessed as reduction in cell viability incubated for 72 hrs by resazurin dye based assay; format: functional; conditions: MV4-11, 72 h
K562 = assay: Antiproliferative activity against human K562 cells assessed as reduction in cell viability incubated for 72 hrs by resazurin dye based assay; format: functional; conditions: K562, 72 h
RS4-11 [1] = assay: Induction of cell cycle arrest in human RS4-11 cells assessed as accumulation of cells in subG1 phase at 1.25 to 10 uM measured after 72 hrs by PI staining based flow cytometry analysis; format: functional; conditions: dose 1.25-10 µM
RS4-11 [2] = assay: Downregulation of HOXA9 protein expression in human RS4-11 cells at 5 to 20 uM measured after 24 hrs by Western blot analysis; format: functional, cell-based; conditions: dose 5-20 µM
RS4-11 [3] = assay: Antiproliferative activity against human RS4-11 cells assessed as reduction in cell viability incubated for 72 hrs by resazurin dye based assay; format: functional; conditions: RS4-11, 72 h
RS4-11 [4] = assay: Induction of cell cycle arrest in human RS4-11 cells assessed as accumulation of cells in G2/M phase at 1.25 to 10 uM measured after 72 hrs by PI staining based flow cytometry analysis; format: functional; conditions: dose 1.25-10 µM
ML-2 = assay: Antiproliferative activity against human ML-2 cells assessed as reduction in cell viability incubated for 72 hrs by resazurin dye based assay; format: functional; conditions: ML-2, 72 h
KOPN-8 = assay: Antiproliferative activity against human KOPN-8 cells assessed as reduction in cell viability incubated for 72 hrs by resazurin dye based assay; format: functional; conditions: KOPN-8, 72 h
RS4-11 [5] = assay: Downregulation of MEIS1 protein expression in human RS4-11 cells at 5 to 20 uM measured after 24 hrs by Western blot analysis; format: functional, cell-based; conditions: dose 5-20 µM

COc1cc(-c2c(C#N)c(-c3cccs3)nc3c2c(-c2ccccc2)nn3-c2ccccc2)ccc1O was tested, and the IC50 (CCRF-CEM) was 37.3 µM, the IC50 (MV4-11) was 44.2 µM and the IC50 (K562) was 15.4 µM.

Cc1ccc(-c2nc3c(c(-c4ccccc4)nn3-c3ccccc3)c(-c3ccc4c(c3)OCO4)c2C#N)cc1 was tested, and the Activity (RS4-11 [1]) was “Active”, the Activity (RS4-11 [2]) was “Active” and the IC50 (CCRF-CEM) was 23.9 µM. The IC50 (MV4-11) was 5.1 µM, the IC50 (RS4-11 [3]) was 4.6 µM and the Activity (RS4-11 [4]) was “Active”. The IC50 (ML-2) was 7.7 µM, the IC50 (KOPN-8) was 0.7 µM and the Activity (RS4-11 [5]) was “Active”. It also gave an IC50 (K562) of 2 µM.

For COc1ccc(-c2c(C#N)c(-c3ccccc3)nc3c2c(-c2ccccc2)nn3-c2ccccc2)cc1OC, the IC50 (CCRF-CEM) was greater than 25 µM, the IC50 (MV4-11) was greater than 25 µM and the IC50 (K562) was greater than 25 µM.

With N#Cc1c(-c2ccccc2)nc2c(c(-c3ccccc3)nn2-c2ccccc2)c1-c1ccc2c(c1)OCO2 the IC50 (CCRF-CEM) was greater than 25 µM, the IC50 (MV4-11) was greater than 25 µM and the IC50 (RS4-11 [3]) was greater than 25 µM. The IC50 (ML-2) was greater than 25 µM, the IC50 (KOPN-8) was greater than 25 µM and the IC50 (K562) was 5.9 µM.

— ChEMBL document CHEMBL5131391, “One-pot three-component synthesis of novel pyrazolo[3,4-b]pyridines as potent antileukemic agents” (Eur J Med Chem, 2022)
